Assay results published in patent publication US20040248275A1, “Engineered bacterial aggregates” (priority 2003, published 2004).

B1: Lentil lectin (protein, UniProt P02870 31-210; P02870 218-269, looked up)
Lectin beta chain: TETTSFSITKFSPDQKNLIFQGDGYTTKGKLTLTKAVKSTVGRALYSTPIHIWDRDTGNVANFVTSFTFVIDAPSSYNVADEFTFFIAPVDTKPQTGGGYLGVFNSKEYDKTSQTVAVEFDTFYNAAWDPSNKERHIGIDVNSIKSVNTKSWNLQNGERANVVIAFNAATNVLTVTLTYP
Lectin alpha chain: VTSYTLNEVVPLKDVVPEWVRIGFSATTGAEFAAHEVHSWSFHSELGGTSSS

Experiments:
Test in all cases: Lectin aggregation of bacterial cells (microtitre wells, semi-quantitative score)
Format in all cases: cell-based
Parameters in all cases: key: Where the addition of lectins did not cause the aggregation of cells, a score of “0” was assigned; Lectins that caused cellular-aggregation to give small flocs in a turbid suspension were given a score of “+”; A score of “++” was given to lectin-cell aggregate mixes that resulted in large aggregates seen by eye in a turbid suspension; Lectins that caused cellular aggregation to give easily visible aggregates in a clear solution were given a score of “+++”
Details in all cases: cells O.D. 0.5 at 650 nm
A. hydrophila = system: A. hydrophila
Procedure: (§1) Assay approach: Six lectins were chosen to discover their suitability for the aggregation of different species of bacteria. These were Concanavalin A, Lentil lectin, Pseudomonas aeruginosa lectin, peanut lectin, Limulus polyphemus lectin and wheat germ lectin.
(§2) The ability of the lectins to aggregate bacterial cells was studied by mixing cells at an O.D. of 0.5 at 650 nm with different lectins at different concentrations. The extent of aggregation was determined by a semi-quantitative approach. […] Lectins that caused cellular-aggregation to give small flocs in a turbid suspension were given a score of “+”. […] Lectins that caused cellular aggregation to give easily visible aggregates in a clear solution were given a score of “+++”.

E. asburiae = system: E. asburiae
Procedure: as §1, §2

E. brevis = system: E. brevis
Procedure: as §1, §2

E. coli C600 (K12) = system: E. coli C600 (K12)
Procedure: as §1, §2

E. coli S17-1 (K12) = system: E. coli S17-1 (K12)
Procedure: as §1, §2

E. faecalis = system: E. faecalis
Procedure: as §1, §2

K. oxytoca = system: K. oxytoca
Procedure: as §1, §2

P. putida = system: P. putida
Procedure: as §1, §2

S. haemolyticus = system: S. haemolyticus
Procedure: as §1, §2

S. paucimobilis = system: S. paucimobilis
Procedure: as §1, §2

S. plymuthica = system: S. plymuthica
Procedure: as §1, §2

Row | Molecule | extent of aggregation (score) (A. hydrophila; lectin 1 × 10^−1 mg/mL) | extent of aggregation (score) (A. hydrophila; lectin 1 × 10^−2 mg/mL) | extent of aggregation (score) (A. hydrophila; lectin 1 × 10^−3 mg/mL) | extent of aggregation (score) (E. asburiae; lectin 1 × 10^−1 mg/mL) | extent of aggregation (score) (E. asburiae; lectin 1 × 10^−2 mg/mL) | extent of aggregation (score) (E. asburiae; lectin 1 × 10^−3 mg/mL) | extent of aggregation (score) (E. brevis; lectin 1 × 10^−1 mg/mL) | extent of aggregation (score) (E. brevis; lectin 1 × 10^−2 mg/mL) | extent of aggregation (score) (E. brevis; lectin 1 × 10^−3 mg/mL) | extent of aggregation (score) (E. coli C600 (K12); lectin 1 × 10^−1 mg/mL) | extent of aggregation (score) (E. coli C600 (K12); lectin 1 × 10^−2 mg/mL) | extent of aggregation (score) (E. coli C600 (K12); lectin 1 × 10^−3 mg/mL) | extent of aggregation (score) (E. coli S17-1 (K12); lectin 1 × 10^−1 mg/mL) | extent of aggregation (score) (E. coli S17-1 (K12); lectin 1 × 10^−2 mg/mL) | extent of aggregation (score) (E. coli S17-1 (K12); lectin 1 × 10^−3 mg/mL) | extent of aggregation (score) (E. faecalis; lectin 1 × 10^−1 mg/mL) | extent of aggregation (score) (E. faecalis; lectin 1 × 10^−2 mg/mL) | extent of aggregation (score) (E. faecalis; lectin 1 × 10^−3 mg/mL) | extent of aggregation (score) (K. oxytoca; lectin 1 × 10^−1 mg/mL) | extent of aggregation (score) (K. oxytoca; lectin 1 × 10^−2 mg/mL) | other results
1 | Concanavalin A | +++ | ++ | ++ | + | + | 0 | + | + | 0 | +++ | +++ | + | +++ | +++ | + | 0 | + | ++ | ++ | + | extent of aggregation (score) (K. oxytoca; lectin 1 × 10^−3 mg/mL): 0; extent of aggregation (score) (P. putida; lectin 1 × 10^−1 mg/mL): +++; extent of aggregation (score) (P. putida; lectin 1 × 10^−2 mg/mL): ++; extent of aggregation (score) (P. putida; lectin 1 × 10^−3 mg/mL): +; extent of aggregation (score) (S. haemolyticus; lectin 1 × 10^−1 mg/mL): +++; extent of aggregation (score) (S. haemolyticus; lectin 1 × 10^−2 mg/mL): ++; extent of aggregation (score) (S. haemolyticus; lectin 1 × 10^−3 mg/mL): +; extent of aggregation (score) (S. paucimobilis; lectin 1 × 10^−1 mg/mL): +; extent of aggregation (score) (S. paucimobilis; lectin 1 × 10^−2 mg/mL): ++; extent of aggregation (score) (S. paucimobilis; lectin 1 × 10^−3 mg/mL): 0; extent of aggregation (score) (S. plymuthica; lectin 1 × 10^−1 mg/mL): +; extent of aggregation (score) (S. plymuthica; lectin 1 × 10^−2 mg/mL): +; extent of aggregation (score) (S. plymuthica; lectin 1 × 10^−3 mg/mL): +
2 | B1 | +++ | ++ | ++ | 0 | 0 | 0 | + | 0 | 0 | +++ | ++ | + | +++ | ++ | + | + | + | ++ | ++ | + | extent of aggregation (score) (K. oxytoca; lectin 1 × 10^−3 mg/mL): 0; extent of aggregation (score) (P. putida; lectin 1 × 10^−1 mg/mL): +++; extent of aggregation (score) (P. putida; lectin 1 × 10^−2 mg/mL): ++; extent of aggregation (score) (P. putida; lectin 1 × 10^−3 mg/mL): +; extent of aggregation (score) (S. haemolyticus; lectin 1 × 10^−1 mg/mL): +++; extent of aggregation (score) (S. haemolyticus; lectin 1 × 10^−2 mg/mL): +; extent of aggregation (score) (S. haemolyticus; lectin 1 × 10^−3 mg/mL): +; extent of aggregation (score) (S. paucimobilis; lectin 1 × 10^−1 mg/mL): +; extent of aggregation (score) (S. paucimobilis; lectin 1 × 10^−2 mg/mL): 0; extent of aggregation (score) (S. paucimobilis; lectin 1 × 10^−3 mg/mL): 0; extent of aggregation (score) (S. plymuthica; lectin 1 × 10^−1 mg/mL): +; extent of aggregation (score) (S. plymuthica; lectin 1 × 10^−2 mg/mL): +; extent of aggregation (score) (S. plymuthica; lectin 1 × 10^−3 mg/mL): +
